Tested on: U-937/GTB
Experiment: Cytotoxicity against human U937/GTB cells by fluorometric microculture cytotoxicity assay
Format: functional, cell-based

`CC[C@@H](C)[C@@H]1NC(=O)[C@@H]2CSSC[C@@H]3NC(=O)[C@H](C(C)C)NC(=O)[C@H](CCCCN)NC(=O)[C@H](CC(N)=O)NC(=O)[C@@H](CCCCN)NC(=O)[C@@H]4CSSC[C@H](NC(=O)[C@H](CO)NC(=O)[C@H](CCC(=O)O)NC(=O)CNC(=O)[C@H](CSSC[C@H](NC(=O)CNC(=O)[C@H](CC(C)C)NC(=O)[C@H](C(C)C)NC(=O)[C@H](CO)NC(=O)[C@H](CO)NC1=O)C(=O)N[C@@H](CO)C(=O)N4)NC(=O)[C@@H]1CCCN1C(=O)[C@H]([C@H](C)CC)NC(=O)[C@H](C(C)C)NC(=O)CNC(=O)[C@H](CC(=O)O)NC(=O)[C@H](CCCNC(=N)N)NC(=O)[C@H](Cc1ccc(O)cc1)NC3=O)C(=O)N[C@@H](C(C)C)C(=O)N[C@@H](Cc1ccccc1)C(=O)N[C@@H]([C@@H](C)CC)C(=O)N1CCC[C@H]1C(=O)N2` gave an IC50 of 3.5 µM.
In the case of `CC[C@H](C)[C@@H]1NC(=O)CNC(=O)[C@@H](CC(N)=O)NC(=O)[C@H](Cc2ccccc2)NC(=O)[C@H](Cc2ccc(O)cc2)NC(=O)[C@@H]2CSSC[C@@H]3NC(=O)CNC(=O)[C@H](CC(C)C)NC(=O)[C@H](Cc4ccccc4)NC(=O)[C@H](C(C)C)NC(=O)[C@H]4CSSC[C@H](NC(=O)[C@H](CO)NC(=O)[C@H](CSSC[C@H](NC(=O)[C@H](C)NC1=O)C(=O)NCC(=O)N[C@@H](CCC(=O)O)C(=O)N[C@@H](CO)C(=O)N4)NC(=O)CNC(=O)[C@@H]1CCCN1C(=O)[C@H]([C@@H](C)CC)NC(=O)[C@H](Cc1ccccc1)NC3=O)C(=O)N[C@@H](CCCCN)C(=O)N[C@@H](CO)C(=O)N[C@@H](CCCCN)C(=O)N[C@@H](C(C)C)C(=O)N2` [PSYLE A], the IC50 is reported as 26 µM.
